Results from ChEMBL document CHEMBL5226323, “Targeting Nuclear Receptors in Neurodegeneration and Neuroinflammation” (J Med Chem, 2021).
Blank lines part the entries; values can stand above or below the compound they belong to.

Key:
[1] = biological target: T1, Nuclear receptor subfamily 4 group A member 2/Retinoic acid receptor RXR-alpha (Homo sapiens, UniProt P19793+P43354); assay: Inhibition of full-length Nurr1-RXRalpha in human SH-SY5Y cells; assay type: cell-based
[2] = Half life in ip dosed mouse brain; assay type: ADME, organism-based
[3] = Half life in ip dosed mouse; assay type: ADME, organism-based; conditions: in vivo
[4] = biological target: T2, Nuclear receptor subfamily 4immunitygroup A member 1 (Homo sapiens, UniProt P22736); assay: Inhibition of Gal4-fused Nur77 in HEK293T cells; assay type: cell-based
[5] = biological target: T3, Nuclear receptor subfamily 2 group E member 1 (Homo sapiens, UniProt Q9Y466); assay: Inverse agonist activity at TLX (unknown origin)
[6] = biological target: T4, Retinoic acid receptor RXR-gamma (Homo sapiens, UniProt P48443); assay: Inhibition of RXRgamma (unknown origin)
T4 sequence (P48443 whole entry): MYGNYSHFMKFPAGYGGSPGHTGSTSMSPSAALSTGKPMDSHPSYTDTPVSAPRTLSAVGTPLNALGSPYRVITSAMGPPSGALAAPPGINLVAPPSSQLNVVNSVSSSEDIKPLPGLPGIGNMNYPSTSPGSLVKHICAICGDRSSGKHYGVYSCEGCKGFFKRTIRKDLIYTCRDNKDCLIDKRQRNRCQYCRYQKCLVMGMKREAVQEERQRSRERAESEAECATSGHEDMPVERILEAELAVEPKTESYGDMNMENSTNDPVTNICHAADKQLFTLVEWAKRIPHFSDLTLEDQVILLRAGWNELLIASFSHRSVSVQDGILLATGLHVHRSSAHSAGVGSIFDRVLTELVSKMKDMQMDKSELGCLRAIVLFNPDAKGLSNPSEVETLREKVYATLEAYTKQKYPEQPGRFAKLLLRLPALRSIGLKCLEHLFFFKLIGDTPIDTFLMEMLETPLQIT

[7] = biological target: T5, Retinoic acid receptor RXR-beta (Homo sapiens, UniProt P28702); assay: Inhibition of RXRbeta (unknown origin)
T5 sequence (P28702 whole entry): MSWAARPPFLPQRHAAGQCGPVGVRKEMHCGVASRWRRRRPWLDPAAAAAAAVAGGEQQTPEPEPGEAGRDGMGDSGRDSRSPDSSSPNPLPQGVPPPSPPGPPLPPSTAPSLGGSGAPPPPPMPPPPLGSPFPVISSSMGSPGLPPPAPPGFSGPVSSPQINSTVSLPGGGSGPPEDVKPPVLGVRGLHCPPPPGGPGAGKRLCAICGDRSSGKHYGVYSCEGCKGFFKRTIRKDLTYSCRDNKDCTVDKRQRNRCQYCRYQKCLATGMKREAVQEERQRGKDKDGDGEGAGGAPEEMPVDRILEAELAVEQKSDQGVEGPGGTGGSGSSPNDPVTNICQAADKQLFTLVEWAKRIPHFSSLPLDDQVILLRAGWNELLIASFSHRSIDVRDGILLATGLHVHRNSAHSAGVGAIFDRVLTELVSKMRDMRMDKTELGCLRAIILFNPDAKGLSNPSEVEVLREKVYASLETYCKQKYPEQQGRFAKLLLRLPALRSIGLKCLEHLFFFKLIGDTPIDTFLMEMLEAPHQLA

[8] = biological target: T6, Retinoic acid receptor RXR-alpha (Homo sapiens, UniProt P19793); assay: Inhibition of RXRalpha (unknown origin)
T6 sequence (P19793 whole entry): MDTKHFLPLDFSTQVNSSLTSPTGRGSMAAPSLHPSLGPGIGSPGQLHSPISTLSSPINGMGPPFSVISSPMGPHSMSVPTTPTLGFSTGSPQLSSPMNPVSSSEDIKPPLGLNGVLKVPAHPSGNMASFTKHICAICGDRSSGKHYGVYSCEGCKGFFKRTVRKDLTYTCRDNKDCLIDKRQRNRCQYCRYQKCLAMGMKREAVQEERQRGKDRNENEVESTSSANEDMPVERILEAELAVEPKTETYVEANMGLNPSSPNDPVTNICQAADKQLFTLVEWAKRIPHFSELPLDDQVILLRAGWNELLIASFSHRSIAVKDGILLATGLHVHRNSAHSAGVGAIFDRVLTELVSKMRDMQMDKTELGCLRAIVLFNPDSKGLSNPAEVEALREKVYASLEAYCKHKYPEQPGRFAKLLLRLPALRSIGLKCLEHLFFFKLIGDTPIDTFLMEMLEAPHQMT

[9] = biological target: T6, Retinoic acid receptor RXR-alpha; assay: Inhibition of RXRalpha (unknown origin) by BRET assay
Homo sapiens = species on record: Homo sapiens; assay: Selectivity ratio of IC50 for Nurr1-RXRalpha (unknown origin) to IC50 for RXRalpha (unknown origin) by BRET assay
[10] = biological target: T1, Nuclear receptor subfamily 4 group A member 2/Retinoic acid receptor RXR-alpha; assay: Inhibition of Nurr1-RXRalpha (unknown origin) by BRET assay; assay type: protein-complex assay
[11] = Inhibition of RXR (unknown origin)
Mus musculus = assay: Anti-alzheimer activity against APP/PS1 mouse assessed as decrease in A-beta levels in hippocampus at 100 mg/kg, po measured after 14 days by ELISA analysis relative to control; assay type: functional; set-up: scale not given: the % may be the effect or the level left; conditions: time 14 day
[12] = biological target: T3, Nuclear receptor subfamily 2 group E member 1; assay: Inverse agonist activity at TLX (unknown origin) assessed as fold activation; conditions: filed as inverse agonist
[13] = Antagonist activity at NFkappaB in rat RAW264.7 cells
[14] = biological target: Nuclear receptor subfamily 4 group A member 1 (Mus musculus) (UniProt P12813); assay: Inhibition of full length Nur77 in mouse MN9D cells at 50 uM relative to control; assay type: cell-based
[15] = biological target: T2, Nuclear receptor subfamily 4immunitygroup A member 1; assay: Inhibition of full length Nur77 in HEK293T cells at 50 uM relative to control; assay type: cell-based
[16] = biological target: T2, Nuclear receptor subfamily 4immunitygroup A member 1; assay: Binding affinity to Nur77 (unknown origin) by SPR assay
[17] = biological target: T2, Nuclear receptor subfamily 4immunitygroup A member 1; assay: Agonist activity at full length Nur77 in Normal human bronchial epithelial cell assessed as fold increase of receptor transactivation at 10 uM; assay type: cell-based; conditions: filed as agonist
[18] = biological target: T6, Retinoic acid receptor RXR-alpha; assay: Antagonist activity at RXRalpha (unknown origin)
[19] = biological target: T7, Retinoic acid receptor RXR-beta (Homo sapiens) (UniProt P28702); assay: Agonist activity at RXRbeta (unknown origin) assessed as fold activation; conditions: filed as agonist
T7 sequence (whole entry): T5 sequence (P28702 whole entry)

[20] = biological target: T8, Retinoic acid receptor RXR-gamma (Homo sapiens) (UniProt P48443); assay: Agonist activity at RXRgamma (unknown origin) assessed as fold activation; conditions: filed as agonist
T8 sequence (whole entry): T4 sequence (P48443 whole entry)

[21] = biological target: T9, Retinoic acid receptor RXR-alpha (Homo sapiens) (UniProt P19793); assay: Agonist activity at RXRalpha (unknown origin) assessed as fold activation; conditions: filed as agonist
T9 sequence (whole entry): T6 sequence (P19793 whole entry)

T2 sequence (P22736 whole entry, the tested form may be a part): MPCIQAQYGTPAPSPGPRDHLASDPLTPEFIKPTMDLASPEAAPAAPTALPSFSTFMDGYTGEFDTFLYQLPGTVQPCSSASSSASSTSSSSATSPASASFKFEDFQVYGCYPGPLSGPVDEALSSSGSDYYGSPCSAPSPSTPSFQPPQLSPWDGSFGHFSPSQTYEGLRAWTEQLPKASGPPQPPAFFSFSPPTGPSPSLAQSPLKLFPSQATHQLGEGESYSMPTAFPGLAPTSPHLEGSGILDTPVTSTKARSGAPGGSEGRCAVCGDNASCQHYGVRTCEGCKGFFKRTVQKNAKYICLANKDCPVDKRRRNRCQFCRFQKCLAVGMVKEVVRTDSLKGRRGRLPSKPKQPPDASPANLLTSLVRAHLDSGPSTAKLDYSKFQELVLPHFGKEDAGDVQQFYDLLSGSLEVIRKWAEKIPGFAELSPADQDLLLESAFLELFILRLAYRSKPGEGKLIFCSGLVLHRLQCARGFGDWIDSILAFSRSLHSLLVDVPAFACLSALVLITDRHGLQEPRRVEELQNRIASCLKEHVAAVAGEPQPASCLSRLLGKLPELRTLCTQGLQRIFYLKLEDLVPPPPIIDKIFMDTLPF
T3 sequence (Q9Y466 whole entry): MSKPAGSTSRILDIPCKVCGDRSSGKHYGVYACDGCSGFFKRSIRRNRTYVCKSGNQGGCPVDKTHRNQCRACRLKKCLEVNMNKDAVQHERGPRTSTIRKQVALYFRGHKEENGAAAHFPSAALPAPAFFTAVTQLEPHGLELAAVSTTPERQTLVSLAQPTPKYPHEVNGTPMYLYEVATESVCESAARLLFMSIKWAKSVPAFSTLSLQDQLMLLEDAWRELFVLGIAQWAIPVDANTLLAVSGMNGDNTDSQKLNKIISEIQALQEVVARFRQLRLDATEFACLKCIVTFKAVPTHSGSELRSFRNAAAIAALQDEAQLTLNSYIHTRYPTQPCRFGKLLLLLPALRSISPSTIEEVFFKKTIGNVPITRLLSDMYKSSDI
T1 sequence (P43354 whole entry, one chain of several): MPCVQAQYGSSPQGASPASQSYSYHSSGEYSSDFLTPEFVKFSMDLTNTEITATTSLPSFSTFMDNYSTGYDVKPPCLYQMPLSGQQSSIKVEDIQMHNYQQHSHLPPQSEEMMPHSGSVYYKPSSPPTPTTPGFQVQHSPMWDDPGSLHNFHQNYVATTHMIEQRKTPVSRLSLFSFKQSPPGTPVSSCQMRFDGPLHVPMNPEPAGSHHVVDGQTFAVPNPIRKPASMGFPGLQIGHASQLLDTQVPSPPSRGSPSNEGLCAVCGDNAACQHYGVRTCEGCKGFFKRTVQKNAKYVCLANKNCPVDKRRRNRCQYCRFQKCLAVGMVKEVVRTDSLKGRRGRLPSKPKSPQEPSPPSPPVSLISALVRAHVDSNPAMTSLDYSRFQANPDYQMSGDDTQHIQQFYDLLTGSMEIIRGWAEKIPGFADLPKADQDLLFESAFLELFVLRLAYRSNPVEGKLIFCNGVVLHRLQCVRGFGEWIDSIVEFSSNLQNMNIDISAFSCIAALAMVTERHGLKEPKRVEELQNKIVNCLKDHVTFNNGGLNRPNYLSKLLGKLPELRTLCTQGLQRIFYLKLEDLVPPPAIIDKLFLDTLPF
Sequence of Nuclear receptor subfamily 4 group A member 1 (Mus musculus) (P12813 whole entry): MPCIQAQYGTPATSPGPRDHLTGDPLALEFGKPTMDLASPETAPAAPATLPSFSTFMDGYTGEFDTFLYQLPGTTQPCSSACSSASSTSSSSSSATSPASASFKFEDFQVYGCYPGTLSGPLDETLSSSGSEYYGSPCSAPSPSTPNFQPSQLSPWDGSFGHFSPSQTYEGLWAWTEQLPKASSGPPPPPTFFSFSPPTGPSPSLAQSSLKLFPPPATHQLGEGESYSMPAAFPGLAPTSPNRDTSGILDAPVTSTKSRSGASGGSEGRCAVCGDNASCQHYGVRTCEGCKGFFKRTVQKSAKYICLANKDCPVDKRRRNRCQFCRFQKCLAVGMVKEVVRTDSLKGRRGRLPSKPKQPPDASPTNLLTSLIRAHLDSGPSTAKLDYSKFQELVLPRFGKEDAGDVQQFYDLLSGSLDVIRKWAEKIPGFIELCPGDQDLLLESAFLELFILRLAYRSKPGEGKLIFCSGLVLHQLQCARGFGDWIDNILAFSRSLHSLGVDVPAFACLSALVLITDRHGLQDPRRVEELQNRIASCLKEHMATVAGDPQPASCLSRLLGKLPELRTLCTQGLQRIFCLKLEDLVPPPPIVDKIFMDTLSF

EC50 [1]: 900 nM
half-life [2]: 1.5 h
half-life [3]: 1.5 h
EC50 [4]: 4700 nM
SMILES: Cc1ccc(Cl)c(Nc2ccccc2C(=O)O)c1Cl [MECLOFENAMIC ACID]

EC50 [5]: 200 nM
SMILES: O=C(O)c1ccc(-c2ccc3cc(O)c(C45CC6CC(CC(C6)C4)C5)cc3c2)cc1

EC50 [6]: 3 nM
EC50 [7]: 23 nM
EC50 [8]: 0.58 nM
SMILES: CCN(c1ccc(C(=O)O)cc1)c1ccc(C(C)C)c(OCC(C)C)c1

pEC50 [9]: 7.7
Ratio IC50 (Homo sapiens): 25
EC50 [10]: 0.794 nM
inhibition ([10]; concentration not given here): 129%
SMILES: CC(C)c1cccc(-c2cc(/C=C/C(=O)O)ccc2O)c1

EC50 [11]: 3 nM
SMILES: Cc1cc2c(cc1C1(c3ccc(C(=O)O)cn3)CC1)C(C)(C)CCC2(C)C

SMILES: C=C(c1ccc(C(=O)O)cc1)c1cc2c(cc1C)C(C)(C)CCC2(C)C [BEXAROTENE]
Activity (Mus musculus): 75%

EC50 [5]: 200 nM
fold change (FC) [12]: 5
SMILES: CC1(C)CC=C(c2ccccc2)c2cc(/C=C/c3ccc(C(=O)O)cc3)ccc21

EC50 [6]: 376 nM
EC50 [7]: 36 nM
EC50 [8]: 32 nM
SMILES: CCN(c1ccc(C(=O)O)cc1)c1ccc(C(C)C)c(OC(C)C)c1

IC50 [13]: 1600 nM
SMILES: CCCCCCCCC(=O)c1c(O)cc(O)cc1CC(=O)OCCCCC

inhibition [14]: 25%
inhibition [15]: 25%
SMILES: CC/C=C\C/C=C\C/C=C\C/C=C\C/C=C\C/C=C\CCC(=O)O

Kd [16]: 2050 nM
fold change (FC) [17]: 15
SMILES: CCCCC[C@H](O)/C=C/[C@H]1C=CC(=O)[C@@H]1C/C=C\CCCC(=O)O [PROSTAGLANDIN A2]

SMILES: CCCCCOc1cc2c(cc1-c1cc(CCC(=O)O)ccc1O)C(C)(C)CCC2(C)C
EC50 [18]: 240 nM

EC50 [5]: 200 nM
fold change (FC) [12]: 4
SMILES: CC1=C(/C=C/C(C)=C/C=C/C(C)=C/C=O)C(C)(C)CCC1 [RETINAL]

fold change (FC) [19]: 69
fold change (FC) [20]: 4
fold change (FC) [21]: 9
SMILES: CC1=C2[C@H](/C=C(\C)C(=O)O)CC[C@@H](C)[C@H]2CC1
